Measurements published in PubChem BioAssay (NCI).
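Compound exposure: 48 hours, 5 concentrations, 96-well plates. GI50 is the concentration that inhibits growth by half. TGI marks complete inhibition of growth.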

How the values were obtained:
Experiment in all cases: NCI anticancer screen, dose series, 48 h
786-0 renal = tested on: 786-0 renal
A498 renal = tested on: A498 renal
A549 NSCLC = tested on: A549 NSCLC
ACHN renal = tested on: ACHN renal
BT-549 breast = tested on: BT-549 breast
CAKI-1 renal = tested on: CAKI-1 renal
CCRF-CEM leukemia = tested on: CCRF-CEM leukemia
COLO 205 colon = tested on: COLO 205 colon
DU-145 prostate = tested on: DU-145 prostate
EKVX NSCLC = tested on: EKVX NSCLC
HCC-2998 colon = tested on: HCC-2998 colon
HCT-116 colon = tested on: HCT-116 colon
HCT-15 colon = tested on: HCT-15 colon
HL-60(TB) leukemia = tested on: HL-60(TB) leukemia
HOP-62 NSCLC = tested on: HOP-62 NSCLC
HOP-92 NSCLC = tested on: HOP-92 NSCLC
HS 578T breast = tested on: HS 578T breast
HT29 colon = tested on: HT29 colon
IGROV1 ovarian = tested on: IGROV1 ovarian
KM12 colon = tested on: KM12 colon
LOX IMVI melanoma = tested on: LOX IMVI melanoma
M14 melanoma = tested on: M14 melanoma
MALME-3M melanoma = tested on: MALME-3M melanoma
MCF7 breast = tested on: MCF7 breast
MDA-MB-231 breast = tested on: MDA-MB-231 breast
MDA-MB-435 = tested on: MDA-MB-435
MOLT-4 leukemia = tested on: MOLT-4 leukemia
NCI-H226 lung = tested on: NCI-H226 lung
NCI-H23 lung = tested on: NCI-H23 lung
NCI-H460 lung = tested on: NCI-H460 lung
NCI-H522 lung = tested on: NCI-H522 lung
NCI/ADR-RES ovarian = tested on: NCI/ADR-RES ovarian
OVCAR-3 ovarian = tested on: OVCAR-3 ovarian
OVCAR-4 ovarian = tested on: OVCAR-4 ovarian
OVCAR-5 ovarian = tested on: OVCAR-5 ovarian
OVCAR-8 ovarian = tested on: OVCAR-8 ovarian
PC-3 prostate = tested on: PC-3 prostate
RPMI-8226 leukemia = tested on: RPMI-8226 leukemia
RXF 393 renal = tested on: RXF 393 renal
SF-268 CNS = tested on: SF-268 CNS
SF-295 CNS = tested on: SF-295 CNS
SF-539 CNS = tested on: SF-539 CNS
SK-MEL-2 melanoma = tested on: SK-MEL-2 melanoma
SK-MEL-28 melanoma = tested on: SK-MEL-28 melanoma
SK-MEL-5 melanoma = tested on: SK-MEL-5 melanoma
SK-OV-3 ovarian = tested on: SK-OV-3 ovarian
SN12C renal = tested on: SN12C renal
SNB-19 CNS = tested on: SNB-19 CNS
SNB-75 CNS = tested on: SNB-75 CNS
SW-620 colon = tested on: SW-620 colon
T-47D breast = tested on: T-47D breast
TK-10 renal = tested on: TK-10 renal
U251 CNS = tested on: U251 CNS
UACC-257 melanoma = tested on: UACC-257 melanoma
UACC-62 melanoma = tested on: UACC-62 melanoma
UO-31 renal = tested on: UO-31 renal

CC1(C)CCC2(CC1)N[C@@H](C(=O)N[C@@H]1CC[C@@H](C(N)=O)OC1)[C@H](c1ccnc(Cl)c1F)[C@]21C(=O)Nc2cc(Cl)ccc21
GI50 (786-0 renal): 2.77 µM | TGI (786-0 renal): 8.51 µM | GI50 (A498 renal): 0.111 µM | TGI (A498 renal): 3.95 µM | GI50 (A549 NSCLC): 0.26 µM | TGI (A549 NSCLC): 13.1 µM | GI50 (ACHN renal): 0.139 µM | TGI (ACHN renal): 2.28 µM | GI50 (BT-549 breast): 2.45 µM | TGI (BT-549 breast): 7.52 µM | GI50 (CAKI-1 renal): 0.0622 µM | TGI (CAKI-1 renal): 4.15 µM | GI50 (CCRF-CEM leukemia): 3.01 µM | TGI (CCRF-CEM leukemia): 13.3 µM | GI50 (COLO 205 colon): 2.11 µM | TGI (COLO 205 colon): 5.39 µM | GI50 (DU-145 prostate): 3.94 µM | TGI (DU-145 prostate): 16.1 µM | GI50 (EKVX NSCLC): 2.38 µM | TGI (EKVX NSCLC): 7.6 µM | GI50 (HCC-2998 colon): 1.7 µM | TGI (HCC-2998 colon): 3.21 µM | GI50 (HCT-116 colon): 0.07 µM | TGI (HCT-116 colon): 6.96 µM | GI50 (HCT-15 colon): 2.88 µM | TGI (HCT-15 colon): 10.1 µM | GI50 (HL-60(TB) leukemia): 2.36 µM | TGI (HL-60(TB) leukemia): 5.59 µM | GI50 (HOP-62 NSCLC): 2.31 µM | TGI (HOP-62 NSCLC): 7.83 µM | GI50 (HOP-92 NSCLC): 1.78 µM | TGI (HOP-92 NSCLC): 4.79 µM | GI50 (HS 578T breast): 2.33 µM | TGI (HS 578T breast): 10.4 µM | GI50 (HT29 colon): 2.22 µM | TGI (HT29 colon): 6.01 µM | GI50 (IGROV1 ovarian): 0.793 µM | TGI (IGROV1 ovarian): 6.13 µM | GI50 (KM12 colon): 2.39 µM | TGI (KM12 colon): 6.23 µM | GI50 (LOX IMVI melanoma): 0.124 µM | TGI (LOX IMVI melanoma): 2 µM | GI50 (M14 melanoma): 2.14 µM | TGI (M14 melanoma): 5.63 µM | GI50 (MALME-3M melanoma): 0.0482 µM | TGI (MALME-3M melanoma): 2.03 µM | GI50 (MCF7 breast): 0.037 µM | TGI (MCF7 breast): 2.28 µM | GI50 (MDA-MB-231 breast): 1.92 µM | TGI (MDA-MB-231 breast): 3.98 µM | GI50 (MDA-MB-435): 2.44 µM | TGI (MDA-MB-435): 6.22 µM | GI50 (MOLT-4 leukemia): 0.107 µM | TGI (MOLT-4 leukemia): 3.13 µM | GI50 (NCI-H226 lung): 0.0935 µM | TGI (NCI-H226 lung): 0.804 µM | GI50 (NCI-H23 lung): 3.73 µM | TGI (NCI-H23 lung): 15.4 µM | GI50 (NCI-H460 lung): 0.179 µM | TGI (NCI-H460 lung): 2.05 µM | GI50 (NCI-H522 lung): 2.01 µM | TGI (NCI-H522 lung): 4.46 µM | GI50 (NCI/ADR-RES ovarian): 16.3 µM | TGI (NCI/ADR-RES ovarian): 45.5 µM | GI50 (OVCAR-3 ovarian): 2.75 µM | TGI (OVCAR-3 ovarian): 8.2 µM | GI50 (OVCAR-4 ovarian): 3.19 µM | TGI (OVCAR-4 ovarian): 14.1 µM | GI50 (OVCAR-5 ovarian): 2.15 µM | TGI (OVCAR-5 ovarian): 5.9 µM | GI50 (OVCAR-8 ovarian): 3.92 µM | TGI (OVCAR-8 ovarian): 27.7 µM | GI50 (PC-3 prostate): 2.26 µM | TGI (PC-3 prostate): 6.25 µM | GI50 (RPMI-8226 leukemia): 2.12 µM | TGI (RPMI-8226 leukemia): 5.57 µM | GI50 (RXF 393 renal): 2.26 µM | TGI (RXF 393 renal): 5.67 µM | GI50 (SF-268 CNS): 3.5 µM | TGI (SF-268 CNS): 19.1 µM | GI50 (SF-295 CNS): 2.14 µM | TGI (SF-295 CNS): 5.04 µM | GI50 (SF-539 CNS): 1.93 µM | TGI (SF-539 CNS): 4.66 µM | GI50 (SK-MEL-2 melanoma): 2.16 µM | TGI (SK-MEL-2 melanoma): 5.02 µM | GI50 (SK-MEL-28 melanoma): 1.95 µM | TGI (SK-MEL-28 melanoma): 4.06 µM | GI50 (SK-MEL-5 melanoma): 0.743 µM | TGI (SK-MEL-5 melanoma): 2.17 µM | GI50 (SK-OV-3 ovarian): 3 µM | TGI (SK-OV-3 ovarian): 9.27 µM | GI50 (SN12C renal): 3.13 µM | TGI (SN12C renal): 12 µM | GI50 (SNB-19 CNS): 3.38 µM | TGI (SNB-19 CNS): 15.2 µM | GI50 (SNB-75 CNS): 2.17 µM | TGI (SNB-75 CNS): 9.38 µM | GI50 (SW-620 colon): 3.81 µM | TGI (SW-620 colon): 23.1 µM | GI50 (T-47D breast): 2.58 µM | TGI (T-47D breast): 7.85 µM | GI50 (TK-10 renal): 3.13 µM | TGI (TK-10 renal): 15.7 µM | GI50 (U251 CNS): 2.8 µM | TGI (U251 CNS): 9.64 µM | GI50 (UACC-257 melanoma): 0.19 µM | TGI (UACC-257 melanoma): 2.53 µM | GI50 (UACC-62 melanoma): 0.0556 µM | TGI (UACC-62 melanoma): 2.05 µM | GI50 (UO-31 renal): 0.261 µM | TGI (UO-31 renal): 3.04 µM
